Assay results reported in ChEMBL document CHEMBL1146889, “Homo-cysteinyl peptide inhibitors of the L1 metallo-beta-lactamase, and SAR as determined by combinatorial library synthesis” (Bioorg Med Chem Lett, 2006).
pKi: −log10 of the molar value.

Columns and labels:
[1] = target: Beta-lactamase L1 (Stenotrophomonas maltophilia) (UniProt P52700); test: Inhibition of Stenotrophomonas maltophilia L1 metallo beta lactamase at 200 uM
Beta-lactamase L1 = Beta-lactamase L1 (Stenotrophomonas maltophilia, UniProt P52700); test: Inhibition of Stenotrophomonas maltophilia L1 metallo beta lactamase
Chain of Beta-lactamase L1 (P52700 whole entry): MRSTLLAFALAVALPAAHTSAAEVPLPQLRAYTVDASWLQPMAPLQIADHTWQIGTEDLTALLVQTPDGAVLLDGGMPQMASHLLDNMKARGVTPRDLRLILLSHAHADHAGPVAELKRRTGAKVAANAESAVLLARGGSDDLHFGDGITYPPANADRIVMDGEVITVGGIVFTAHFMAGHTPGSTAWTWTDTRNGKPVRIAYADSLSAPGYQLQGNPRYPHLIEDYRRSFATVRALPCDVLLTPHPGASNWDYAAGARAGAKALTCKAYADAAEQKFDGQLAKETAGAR

Chain of Beta-lactamase L1 (Stenotrophomonas maltophilia) (P52700 34-290 limits assumed): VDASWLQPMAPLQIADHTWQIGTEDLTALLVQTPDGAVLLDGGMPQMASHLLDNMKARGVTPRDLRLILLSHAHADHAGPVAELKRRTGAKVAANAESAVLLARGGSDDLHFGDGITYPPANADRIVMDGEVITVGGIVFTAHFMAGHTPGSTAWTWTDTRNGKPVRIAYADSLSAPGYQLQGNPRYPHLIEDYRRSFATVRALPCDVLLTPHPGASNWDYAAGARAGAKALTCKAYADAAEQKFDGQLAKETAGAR

Compound	inhibition [1]	pKi (Beta-lactamase L1)
O=C(Cc1ccsc1)NC(CCS)C(=O)N[C@H](Cc1ccccc1)C(=O)O (some centres not stated)	41%	
C=C(C)C(=O)NC(CCS)C(=O)N[C@H](Cc1ccccc1)C(=O)O (some centres not stated)	61%	
NC(=O)CCC(=O)NC(CCS)C(=O)N[C@H](Cc1ccccc1)C(=O)O (some centres not stated)	41%	
O=C(Cc1c[nH]cn1)NC(CCS)C(=O)N[C@H](Cc1ccccc1)C(=O)O (some centres not stated)	41%	
O=C(NC(CCS)C(=O)N[C@H](Cc1ccccc1)C(=O)O)c1ccc([N+](=O)[O-])c(O)c1 (some centres not stated)	61%	
O=C(Cc1ccccc1)NC(CCS)C(=O)N[C@H](Cc1ccccc1)C(=O)O (some centres not stated)	61%	
CCCCc1ccc(C(=O)NC(CCS)C(=O)N[C@H](Cc2ccccc2)C(=O)O)nc1 (stereo in doubt; 91) [listing 1 of 2 here]	81%	
O=C(O)c1cccc(C(=O)NC(CCS)C(=O)N[C@H](Cc2ccccc2)C(=O)O)n1 (stereo in doubt; 84) [listing 1 of 2 here]		7.92
O=C(N[C@H](Cc1ccccc1)C(=O)O)C(CCS)NC(=O)C12CC3CC(CC(C3)C1)C2 (some centres not stated)	61%	
O=C(O)c1cccc(C(=O)NC(CCS)C(=O)N[C@H](Cc2ccccc2)C(=O)O)n1 (stereo in doubt; 84) [listing 2 of 2 here]	81%	
Cc1ccc(C(=O)NC(CCS)C(=O)N[C@H](Cc2ccccc2)C(=O)O)s1 (some centres not stated)	41%	
NC(=O)[C@@H](Cc1ccccc1)NC(=O)C(CCS)NC(=O)c1cccc(C(=O)O)n1 (some centres not stated)		7.59
Nc1nc(CC(=O)NC(CCS)C(=O)N[C@H](Cc2ccccc2)C(=O)O)cs1 (some centres not stated)	41%	
Cc1ccc(C(=O)NC(CCS)C(=O)N[C@H](Cc2ccccc2)C(=O)O)c(O)n1 (some centres not stated)	61%	
O=C(O)c1cccc(C(=O)NC(CCS)C(=O)N[C@H](Cc2ccccc2)C(=O)O)n1 (stereo in doubt; 94)		6.92
CC(=O)CCC(=O)NC(CCS)C(=O)N[C@H](Cc1ccccc1)C(=O)O (some centres not stated)	41%	
CCCC(=O)NC(CCS)C(=O)N[C@H](Cc1ccccc1)C(=O)O (some centres not stated)	41%	
CCCCc1ccc(C(=O)NC(CS)C(=O)N[C@H](Cc2ccccc2)C(=O)O)nc1 (some centres not stated)		6.06
O=C(NC(CCS)C(=O)N[C@H](Cc1ccccc1)C(=O)O)c1cc2cccc([N+](=O)[O-])c2[nH]1 (some centres not stated)	81%	6.82
O=C(NC(CCS)C(=O)N[C@H](Cc1ccccc1)C(=O)O)c1cc2cc(Cl)ccc2[nH]1 (some centres not stated)	81%	6.70
O=C(CC12CC3CC(CC(C3)C1)C2)NC(CCS)C(=O)N[C@H](Cc1ccccc1)C(=O)O (some centres not stated)	61%	
O=C(NC(CCS)C(=O)N[C@H](Cc1ccccc1)C(=O)O)C1CCC1 (some centres not stated)	0%	
C=C(C(=O)NC(CCS)C(=O)N[C@H](Cc1ccccc1)C(=O)O)C(F)(F)F (some centres not stated)	61%	

Compound	inhibition [1]	pKi (Beta-lactamase L1)
Cc1cn(C)c(CC(=O)NC(CCS)C(=O)N[C@H](Cc2ccccc2)C(=O)O)c1C(=O)O (some centres not stated)	41%	
O=C(O)c1cc(O)cc(C(=O)NC(CCS)C(=O)N[C@H](Cc2ccccc2)C(=O)O)c1 (stereo in doubt; 49) [listing 1 of 2 here]	81%	
O=C(NC(CCS)C(=O)N[C@H](Cc1ccccc1)C(=O)O)C1CCCCC1 (some centres not stated)	61%	
O=C(O)c1cc(O)cc(C(=O)NC(CCS)C(=O)N[C@H](Cc2ccccc2)C(=O)O)c1 (stereo in doubt; 49) [listing 2 of 2 here]		6.85
NC(=O)[C@@H](Cc1ccccc1)NC(=O)C(CCS)NC(=O)c1cc(O)cc(C(=O)O)c1 (stereo in doubt; 95)		8.24
O=C(O)c1cc(O)cc(C(=O)NC(CCS)C(=O)N[C@H](Cc2ccccc2)C(=O)O)c1 (stereo in doubt; 96)		6.85
O=C(NC(CCS)C(=O)N[C@H](Cc1ccccc1)C(=O)O)c1cc2cc(O)ccc2[nH]1 (some centres not stated)	81%	6.24
O=C(/C=C\c1ccco1)NC(CCS)C(=O)N[C@H](Cc1ccccc1)C(=O)O (some centres not stated)	21%	
O=C(NC(CCS)C(=O)N[C@H](Cc1ccccc1)C(=O)O)c1cccs1 (some centres not stated)	41%	
CC(=O)Nc1ccc(CC(=O)NC(CCS)C(=O)N[C@H](Cc2ccccc2)C(=O)O)cc1[N+](=O)[O-] (some centres not stated)	81%	6.41
CC(C)CC(=O)NC(CCS)C(=O)N[C@H](Cc1ccccc1)C(=O)O (some centres not stated)	21%	
Cc1ccsc1C(=O)NC(CCS)C(=O)N[C@H](Cc1ccccc1)C(=O)O (some centres not stated)	61%	
C=Cc1ccc(C(=O)NC(CCS)C(=O)N[C@H](Cc2ccccc2)C(=O)O)cc1 (some centres not stated)	61%	
O=C(COc1cccc2ccccc12)NC(CCS)C(=O)N[C@H](Cc1ccccc1)C(=O)O (some centres not stated)	81%	6.54
O=C(Cc1cccc([N+](=O)[O-])c1)NC(CCS)C(=O)N[C@H](Cc1ccccc1)C(=O)O (some centres not stated)	81%	5.99
O=C(NC(CCS)C(=O)N[C@H](Cc1ccccc1)C(=O)O)c1c[nH]c(=O)c(Cl)c1 (some centres not stated)		6.59
O=C(NC(CCS)C(=O)N[C@H](Cc1ccccc1)C(=O)O)c1ccccc1O (some centres not stated)	41%	
O=C(N[C@H](Cc1ccccc1)C(=O)O)C(CCS)NC(=O)C(c1ccccc1)c1ccccc1 (some centres not stated)	61%	
O=C(Cc1cccc2ccccc12)NC(CCS)C(=O)N[C@H](Cc1ccccc1)C(=O)O (some centres not stated)	61%	
O=C(CCc1cccnc1)NC(CCS)C(=O)N[C@H](Cc1ccccc1)C(=O)O (some centres not stated)	41%	
O=C(NC(CCS)C(=O)N[C@H](Cc1ccccc1)C(=O)O)c1ccccc1-c1ccccc1 (some centres not stated)	41%	
O=C(NC(CCS)C(=O)N[C@H](Cc1ccccc1)C(=O)O)c1cc[nH]c1 (some centres not stated)	41%	
O=C(CCC1CCCCC1)NC(CCS)C(=O)N[C@H](Cc1ccccc1)C(=O)O (some centres not stated)	81%	6.11

Compound	inhibition [1]	pKi (Beta-lactamase L1)
O=C(NC(CCS)C(=O)N[C@H](Cc1ccccc1)C(=O)O)C1CCCC1 (some centres not stated)	61%	
Cc1occc1C(=O)NC(CCS)C(=O)N[C@H](Cc1ccccc1)C(=O)O (some centres not stated)	41%	
O=C(NC(CCS)C(=O)N[C@H](Cc1ccccc1)C(=O)O)c1ccccc1[N+](=O)[O-] (some centres not stated)	61%	
O=C(/C=C\c1c[nH]c2ccccc12)NC(CCS)C(=O)N[C@H](Cc1ccccc1)C(=O)O (some centres not stated)	21%	
O=C(O)c1ccc(C(=O)NC(CCS)C(=O)N[C@H](Cc2ccccc2)C(=O)O)cc1 (some centres not stated)	61%	
O=C(Cc1c[nH]c2ccccc12)NC(CCS)C(=O)N[C@H](Cc1ccccc1)C(=O)O (some centres not stated)	61%	
Cn1cccc1C(=O)NC(CCS)C(=O)N[C@H](Cc1ccccc1)C(=O)O (some centres not stated)	41%	
O=C(NC(CCS)C(=O)N[C@H](Cc1ccccc1)C(=O)O)c1cccnc1S (some centres not stated)	61%	
O=C(NC(CCS)C(=O)N[C@H](Cc1ccccc1)C(=O)O)c1ccno1 (some centres not stated)	61%	
CCCCc1ccc(C(=O)NC(CCS)C(=O)N[C@H](Cc2ccccc2)C(=O)O)nc1 (stereo in doubt; 6)		6.64
C/C=C\C=C\C(=O)NC(CCS)C(=O)N[C@H](Cc1ccccc1)C(=O)O (some centres not stated)	41%	
O=C(O)CCC(=O)NC(CCS)C(=O)N[C@H](Cc1ccccc1)C(=O)O (some centres not stated)	41%	
Cc1ccccc1C(=O)NC(CCS)C(=O)N[C@H](Cc1ccccc1)C(=O)O (some centres not stated)	61%	
O=C(COc1ccccc1)NC(CCS)C(=O)N[C@H](Cc1ccccc1)C(=O)O (some centres not stated)	61%	
O=C(Cc1cccs1)NC(CCS)C(=O)N[C@H](Cc1ccccc1)C(=O)O (some centres not stated)	41%	
CCCCc1ccc(C(=O)NC(CCS)C(=O)N[C@H](Cc2ccccc2)C(=O)O)nc1 (stereo in doubt; 91) [listing 2 of 2 here]		6.64
O=C(CC(c1ccccc1)c1ccccc1)NC(CCS)C(=O)N[C@H](Cc1ccccc1)C(=O)O (some centres not stated)	41%	
O=C(CO)NC(CCS)C(=O)N[C@H](Cc1ccccc1)C(=O)O (some centres not stated)	41%	
O=C(NC(CCS)C(=O)N[C@H](Cc1ccccc1)C(=O)O)c1ccco1 (some centres not stated)	41%	
CO/N=C(/C(=O)NC(CCS)C(=O)N[C@H](Cc1ccccc1)C(=O)O)c1csc(NC=O)n1 (some centres not stated)	41%	
O=C(NC(CCS)C(=O)N[C@H](Cc1ccccc1)C(=O)O)c1cccc(O)c1 (some centres not stated)	41%	
Cc1nocc1C(=O)NC(CCS)C(=O)N[C@H](Cc1ccccc1)C(=O)O (some centres not stated)	61%	
O=C(NC(CCS)C(=O)N[C@H](Cc1ccccc1)C(=O)O)c1cnccn1 (some centres not stated)	61%	

Compound	inhibition [1]	pKi (Beta-lactamase L1)
O=C(NC(CCS)C(=O)N[C@H](Cc1ccccc1)C(=O)O)c1cnc(O)c(Cl)c1 (some centres not stated)	81%	
O=C(NC(CCS)C(=O)N[C@H](Cc1ccccc1)C(=O)O)c1ccoc1 (some centres not stated)	41%	
O=C(NC(CCS)C(=O)N[C@H](Cc1ccccc1)C(=O)O)c1ccc2[nH]ccc2c1 (some centres not stated)	61%	
O=C(NC(CCS)C(=O)N[C@H](Cc1ccccc1)C(=O)O)c1cc2ccccc2s1 (some centres not stated)	61%	
O=C(NC(CCS)C(=O)N[C@H](Cc1ccccc1)C(=O)O)c1ccc2cc[nH]c2c1 (some centres not stated)	41%	
CCCCCCCC(=O)NC(CCS)C(=O)N[C@H](Cc1ccccc1)C(=O)O (some centres not stated)	41%	
O=C(Cc1ccc(Br)cc1)NC(CS)C(=O)N[C@H](Cc1ccccc1)C(=O)O (some centres not stated)		5.44
O=C(NC(CCS)C(=O)N[C@H](Cc1ccccc1)C(=O)O)c1ccsc1 (some centres not stated)	41%	
O=C(O)CCCCC(=O)NC(CCS)C(=O)N[C@H](Cc1ccccc1)C(=O)O (some centres not stated)	41%	
NC(=O)[C@@H](Cc1ccccc1)NC(=O)C(CCS)NC(=O)c1cc(O)cc(C(=O)O)c1 (single isomer, unassigned)		6.89
CC(=O)Oc1ccccc1C(=O)NC(CCS)C(=O)N[C@H](Cc1ccccc1)C(=O)O (some centres not stated)	41%	
C=CCCC(=O)NC(CCS)C(=O)N[C@H](Cc1ccccc1)C(=O)O (some centres not stated)	41%	
Cc1ccc(C(=O)NC(CCS)C(=O)N[C@H](Cc2ccccc2)C(=O)O)c(Cl)n1 (some centres not stated)	61%	
O=C(NC(CCS)C(=O)N[C@H](Cc1ccccc1)C(=O)O)c1cccnc1 (some centres not stated)	61%	
O=C(NC(CCS)C(=O)N[C@H](Cc1ccccc1)C(=O)O)c1ccccc1C(=O)c1ccccc1 (some centres not stated)	41%	
O=C(CC(O)C(=O)O)NC(CCS)C(=O)N[C@H](Cc1ccccc1)C(=O)O (some centres not stated)	41%	
NC(=O)[C@@H](Cc1ccccc1)NC(=O)C(CCS)NC(=O)c1cc(O)cc(C(=O)O)c1 (single isomer, unassigned; diastereomer 1)		8.68
CC(=O)Nc1cccc(C(=O)NC(CCS)C(=O)N[C@H](Cc2ccccc2)C(=O)O)c1 (some centres not stated)	61%	
O=C(NC(CCS)C(=O)N[C@H](Cc1ccccc1)C(=O)O)c1ccc([N+](=O)[O-])cc1 (some centres not stated)	41%	
CC(C)C(=O)NC(CCS)C(=O)N[C@H](Cc1ccccc1)C(=O)O (some centres not stated)	41%	
O=C(O)c1cccnc1C(=O)NC(CCS)C(=O)N[C@H](Cc1ccccc1)C(=O)O (some centres not stated)	41%	
